Measurements: PMC5428509, “Irreversible inhibition of BTK kinase by a novel highly selective inhibitor CHMFL-BTK-11 suppresses inflammatory response in rheumatoid arthritis model” (Scientific Reports, 2017)

Columns and labels:
Assay in all cases: biochemical
Set-up in all cases: KinomeScan competition binding panel (DiscoveRx), percent of control at 1 uM
Settings in all cases: read-out: Percent Control
[1] = molecular target: T1, ABL1(Q252H)-nonphosphorylated (Homo sapiens, UniProt P00519, Q252H)
T1 construct: nonphosphorylated
Description: (§1) In order to further confirm the binding mode, we then tested the compounds in the BTK wild-type (wt) and BTK C481S mutant with immunoblotting by looking at the BTK Y551 auto-phosphorylation. […] In addition, a covalent bond was preferred to form between the […] acrylamide and Cys-481 near the hinge binding area, which further confirmed its irreversible binding mode (Fig. 1d). We next investigated CHMFL-BTK-11′s selectivity profile in 456 kinases/mutants with KinomeScan^TM technology.

AKT2 = AKT2 (Homo sapiens, UniProt P31751)
Description: as §1

ALK(C1156Y) = ALK(C1156Y) (Homo sapiens, UniProt Q9UM73, C1156Y)
Description: as §1

BMPR2 = BMPR2 (Homo sapiens, UniProt Q13873)
Description: as §1

CAMKK1 = CAMKK1 (Homo sapiens, UniProt Q8N5S9)
Description: as §1

CDC2L1 = molecular target: T2, CDC2L1 (Homo sapiens, UniProt P21127)
T2 construct: gene CDK11B
Description: as §1

CDC2L5 = molecular target: T3, CDC2L5 (Homo sapiens, UniProt Q14004)
T3 construct: gene CDK13
Description: as §1

CDK11 = molecular target: T4, CDK11 (Homo sapiens, UniProt Q9BWU1)
T4 construct: gene CDK19
Description: as §1

CLK3 = CLK3 (Homo sapiens, UniProt P49761)
Description: as §1

CSF1R-autoinhibited = CSF1R-autoinhibited (Homo sapiens, UniProt P07333)
Description: as §1

CSNK2A1 = CSNK2A1 (Homo sapiens, UniProt P68400)
Description: as §1

DMPK = DMPK (Homo sapiens, UniProt Q09013)
Description: as §1

ERK4 = molecular target: T5, ERK4 (Homo sapiens, UniProt P31152)
T5 construct: gene MAPK4
Description: as §1

ICK = molecular target: T6, ICK (Homo sapiens, UniProt Q9UPZ9)
T6 construct: gene CILK1
Description: as §1

[2] = molecular target: T7, JAK1(JH2domain-pseudokinase) (Homo sapiens, UniProt P23458)
T7 construct: JH2domain-pseudokinase
Description: as §1

KIT-autoinhibited = KIT-autoinhibited (Homo sapiens, UniProt P10721)
Description: as §1

MAP4K2 = MAP4K2 (Homo sapiens, UniProt Q12851)
Description: as §1

MST1 = molecular target: T8, MST1 (Homo sapiens, UniProt Q13043)
T8 construct: gene STK4
Description: as §1

PAK1 = PAK1 (Homo sapiens, UniProt Q13153)
Description: as §1

PIK3CA(E545K) = PIK3CA(E545K) (Homo sapiens, UniProt P42336, E545K)
Description: as §1

PIK3CA(M1043I) = PIK3CA(M1043I) (Homo sapiens, UniProt P42336, M1043I)
Description: as §1

PRKCD = PRKCD (Homo sapiens, UniProt Q05655)
Description: as §1

PRKCE = PRKCE (Homo sapiens, UniProt Q02156)
Description: as §1

PRKD3 = PRKD3 (Homo sapiens, UniProt O94806)
Description: as §1

p38-alpha = molecular target: T9, p38-alpha (Homo sapiens, UniProt Q16539)
T9 construct: gene MAPK14
Description: as §1

Chain of CLK3 (P49761 whole entry): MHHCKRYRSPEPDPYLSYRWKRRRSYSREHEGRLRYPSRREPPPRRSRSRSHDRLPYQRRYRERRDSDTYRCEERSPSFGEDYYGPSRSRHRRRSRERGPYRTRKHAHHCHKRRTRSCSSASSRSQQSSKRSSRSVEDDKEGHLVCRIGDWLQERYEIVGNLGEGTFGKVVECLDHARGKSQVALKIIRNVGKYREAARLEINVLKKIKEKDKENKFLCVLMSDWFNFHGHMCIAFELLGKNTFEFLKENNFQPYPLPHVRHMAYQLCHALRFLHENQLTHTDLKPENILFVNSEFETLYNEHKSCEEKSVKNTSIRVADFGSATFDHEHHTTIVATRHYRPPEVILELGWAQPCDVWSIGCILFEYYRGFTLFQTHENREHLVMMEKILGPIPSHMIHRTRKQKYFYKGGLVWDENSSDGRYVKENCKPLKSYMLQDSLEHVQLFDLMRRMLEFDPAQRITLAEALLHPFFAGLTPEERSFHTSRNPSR
Chain of KIT-autoinhibited (P10721 whole entry): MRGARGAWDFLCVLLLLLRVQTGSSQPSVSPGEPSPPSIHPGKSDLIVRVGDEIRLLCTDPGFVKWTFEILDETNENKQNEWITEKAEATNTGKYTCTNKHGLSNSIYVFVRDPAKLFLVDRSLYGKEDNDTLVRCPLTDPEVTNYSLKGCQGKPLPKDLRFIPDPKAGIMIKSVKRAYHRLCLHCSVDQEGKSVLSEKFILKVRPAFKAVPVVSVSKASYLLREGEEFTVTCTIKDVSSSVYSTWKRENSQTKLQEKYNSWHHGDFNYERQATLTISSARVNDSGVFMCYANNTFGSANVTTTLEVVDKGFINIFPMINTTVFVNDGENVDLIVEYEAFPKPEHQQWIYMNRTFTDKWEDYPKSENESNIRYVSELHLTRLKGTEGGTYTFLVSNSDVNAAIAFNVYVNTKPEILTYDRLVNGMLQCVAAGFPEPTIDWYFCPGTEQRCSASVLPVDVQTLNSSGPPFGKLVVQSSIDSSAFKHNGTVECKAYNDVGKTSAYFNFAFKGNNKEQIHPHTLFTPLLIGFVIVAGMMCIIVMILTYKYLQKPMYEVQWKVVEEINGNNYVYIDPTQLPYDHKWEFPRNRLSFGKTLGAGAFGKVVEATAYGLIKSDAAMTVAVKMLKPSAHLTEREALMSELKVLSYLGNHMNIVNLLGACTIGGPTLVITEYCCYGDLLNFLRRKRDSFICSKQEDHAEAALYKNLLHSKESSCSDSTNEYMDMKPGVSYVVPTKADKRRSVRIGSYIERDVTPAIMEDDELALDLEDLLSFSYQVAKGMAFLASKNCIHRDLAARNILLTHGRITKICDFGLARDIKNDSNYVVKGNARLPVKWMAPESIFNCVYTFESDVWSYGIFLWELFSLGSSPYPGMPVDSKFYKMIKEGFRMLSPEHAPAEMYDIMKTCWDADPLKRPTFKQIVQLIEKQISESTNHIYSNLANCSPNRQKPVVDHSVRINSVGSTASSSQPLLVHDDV
T8 sequence (Q13043 whole entry): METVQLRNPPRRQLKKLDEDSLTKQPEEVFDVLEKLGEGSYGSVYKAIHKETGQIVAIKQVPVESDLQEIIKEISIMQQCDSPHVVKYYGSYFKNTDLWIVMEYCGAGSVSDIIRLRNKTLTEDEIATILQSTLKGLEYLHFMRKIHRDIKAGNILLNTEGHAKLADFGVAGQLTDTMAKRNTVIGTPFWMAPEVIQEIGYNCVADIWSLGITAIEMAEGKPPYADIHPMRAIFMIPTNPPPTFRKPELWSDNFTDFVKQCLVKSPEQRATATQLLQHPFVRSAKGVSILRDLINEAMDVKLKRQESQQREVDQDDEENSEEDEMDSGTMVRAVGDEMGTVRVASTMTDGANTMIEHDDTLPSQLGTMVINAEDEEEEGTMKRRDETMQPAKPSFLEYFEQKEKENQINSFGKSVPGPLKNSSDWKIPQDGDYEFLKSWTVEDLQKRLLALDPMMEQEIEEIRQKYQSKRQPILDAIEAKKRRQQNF
Chain of ALK(C1156Y) (Q9UM73 whole entry C1156Y): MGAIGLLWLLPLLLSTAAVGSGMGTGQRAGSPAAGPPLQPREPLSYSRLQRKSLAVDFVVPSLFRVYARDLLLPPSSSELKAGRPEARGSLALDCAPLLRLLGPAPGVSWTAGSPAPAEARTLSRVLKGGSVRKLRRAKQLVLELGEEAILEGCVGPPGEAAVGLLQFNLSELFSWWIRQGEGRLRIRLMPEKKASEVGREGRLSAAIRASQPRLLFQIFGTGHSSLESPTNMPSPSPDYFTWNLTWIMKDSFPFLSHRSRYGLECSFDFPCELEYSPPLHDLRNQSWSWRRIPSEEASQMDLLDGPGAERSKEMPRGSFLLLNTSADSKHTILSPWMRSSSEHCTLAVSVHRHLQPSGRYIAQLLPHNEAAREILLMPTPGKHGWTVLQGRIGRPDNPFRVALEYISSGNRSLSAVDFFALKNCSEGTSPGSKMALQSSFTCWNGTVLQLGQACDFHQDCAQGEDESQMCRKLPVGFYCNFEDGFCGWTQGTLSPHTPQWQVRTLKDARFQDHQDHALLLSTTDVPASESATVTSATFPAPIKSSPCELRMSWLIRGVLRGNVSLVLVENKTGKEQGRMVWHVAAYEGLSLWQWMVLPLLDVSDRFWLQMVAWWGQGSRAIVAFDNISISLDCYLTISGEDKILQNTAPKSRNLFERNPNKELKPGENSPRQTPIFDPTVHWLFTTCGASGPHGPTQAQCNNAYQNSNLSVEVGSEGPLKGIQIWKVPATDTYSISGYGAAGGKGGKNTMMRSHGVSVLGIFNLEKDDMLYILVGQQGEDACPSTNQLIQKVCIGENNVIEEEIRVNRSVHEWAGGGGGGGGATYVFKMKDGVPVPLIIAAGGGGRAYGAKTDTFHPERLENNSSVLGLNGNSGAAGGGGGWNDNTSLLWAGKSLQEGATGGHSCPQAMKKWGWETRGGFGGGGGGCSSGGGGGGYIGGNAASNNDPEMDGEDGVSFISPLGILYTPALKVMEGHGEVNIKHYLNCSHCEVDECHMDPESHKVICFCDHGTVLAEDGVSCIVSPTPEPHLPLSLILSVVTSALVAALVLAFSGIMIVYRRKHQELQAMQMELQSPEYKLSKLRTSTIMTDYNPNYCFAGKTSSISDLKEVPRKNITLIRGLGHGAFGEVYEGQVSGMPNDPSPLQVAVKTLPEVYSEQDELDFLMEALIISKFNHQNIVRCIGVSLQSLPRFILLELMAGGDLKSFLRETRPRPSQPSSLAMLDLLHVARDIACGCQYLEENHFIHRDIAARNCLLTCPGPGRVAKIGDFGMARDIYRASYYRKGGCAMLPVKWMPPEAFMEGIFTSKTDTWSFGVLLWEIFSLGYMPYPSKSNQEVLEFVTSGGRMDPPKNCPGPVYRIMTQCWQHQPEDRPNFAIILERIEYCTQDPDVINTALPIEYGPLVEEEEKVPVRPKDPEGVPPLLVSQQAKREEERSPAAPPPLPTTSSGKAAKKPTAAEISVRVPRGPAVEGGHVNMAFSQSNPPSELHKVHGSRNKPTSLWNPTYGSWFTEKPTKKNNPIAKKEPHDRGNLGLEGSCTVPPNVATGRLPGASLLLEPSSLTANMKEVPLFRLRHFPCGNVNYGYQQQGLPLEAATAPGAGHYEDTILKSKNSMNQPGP
Chain of PRKCE (Q02156 whole entry): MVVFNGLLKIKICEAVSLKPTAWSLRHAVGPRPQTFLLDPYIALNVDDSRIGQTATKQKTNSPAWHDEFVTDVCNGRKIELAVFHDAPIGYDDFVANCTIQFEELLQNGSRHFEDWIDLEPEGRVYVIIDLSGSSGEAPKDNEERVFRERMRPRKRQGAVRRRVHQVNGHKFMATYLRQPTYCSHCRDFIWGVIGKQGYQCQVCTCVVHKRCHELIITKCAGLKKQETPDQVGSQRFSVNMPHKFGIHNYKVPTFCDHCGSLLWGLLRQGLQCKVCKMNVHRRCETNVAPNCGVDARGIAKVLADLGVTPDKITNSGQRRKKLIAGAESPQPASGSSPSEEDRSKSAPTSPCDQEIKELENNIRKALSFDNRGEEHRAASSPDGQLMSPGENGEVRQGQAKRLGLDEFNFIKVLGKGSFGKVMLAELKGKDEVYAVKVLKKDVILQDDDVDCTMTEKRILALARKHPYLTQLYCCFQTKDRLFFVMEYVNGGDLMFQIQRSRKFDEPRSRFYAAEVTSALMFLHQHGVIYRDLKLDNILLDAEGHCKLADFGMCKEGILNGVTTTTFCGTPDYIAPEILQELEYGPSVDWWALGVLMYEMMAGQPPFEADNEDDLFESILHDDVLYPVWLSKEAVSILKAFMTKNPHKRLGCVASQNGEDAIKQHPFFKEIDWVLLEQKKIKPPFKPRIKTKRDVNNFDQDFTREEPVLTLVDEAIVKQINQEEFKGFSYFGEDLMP
T4 sequence (Q9BWU1 whole entry): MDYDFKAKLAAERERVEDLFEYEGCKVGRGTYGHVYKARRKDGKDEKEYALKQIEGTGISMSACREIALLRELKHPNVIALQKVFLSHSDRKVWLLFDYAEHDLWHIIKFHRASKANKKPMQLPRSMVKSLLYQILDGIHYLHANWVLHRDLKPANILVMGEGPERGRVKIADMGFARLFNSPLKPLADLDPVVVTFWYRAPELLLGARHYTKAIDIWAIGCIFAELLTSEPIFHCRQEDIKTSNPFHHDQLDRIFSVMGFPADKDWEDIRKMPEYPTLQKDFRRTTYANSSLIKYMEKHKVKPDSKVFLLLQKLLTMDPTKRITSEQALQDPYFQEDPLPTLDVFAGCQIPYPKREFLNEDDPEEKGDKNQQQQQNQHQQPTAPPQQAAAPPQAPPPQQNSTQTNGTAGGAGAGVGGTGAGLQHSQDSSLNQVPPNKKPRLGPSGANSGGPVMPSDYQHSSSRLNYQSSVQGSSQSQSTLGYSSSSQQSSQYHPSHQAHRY

For `C=CC(=O)Nc1cc(-n2c(=O)ccc3cnc4ccc(-n5cccn5)cc4c32)ccc1C` [CHMFL-BTK-11], the remaining binding at 1 µM [1] was 100%, the remaining binding at 1 µM (AKT2) was 100% and the remaining binding at 1 µM (ALK(C1156Y)) was 94%. It also gave a remaining binding at 1 µM (BMPR2) of 100%, a remaining binding at 1 µM (CAMKK1) of 78% and a remaining binding at 1 µM (CDC2L1) of 100%. It also gave a remaining binding at 1 µM (CDC2L5) of 98%, a remaining binding at 1 µM (CDK11) of 89% and a remaining binding at 1 µM (CLK3) of 100%. For the same molecule, the remaining binding at 1 µM (CSF1R-autoinhibited) was 70%, the remaining binding at 1 µM (CSNK2A1) was 92% and the remaining binding at 1 µM (DMPK) was 100%. It also gave a remaining binding at 1 µM (ERK4) of 96%, a remaining binding at 1 µM (ICK) of 100% and a remaining binding at 1 µM [2] of 82%. The remaining binding at 1 µM (KIT-autoinhibited) was 83%, the remaining binding at 1 µM (MAP4K2) was 98% and the remaining binding at 1 µM (MST1) was 100%. The remaining binding at 1 µM (PAK1) was 100%, the remaining binding at 1 µM (PIK3CA(E545K)) was 69% and the remaining binding at 1 µM (PIK3CA(M1043I)) was 99%. For the same molecule, the remaining binding at 1 µM (PRKCD) was 86%, the remaining binding at 1 µM (PRKCE) was 97% and the remaining binding at 1 µM (PRKD3) was 100%. It also gave a remaining binding at 1 µM (p38-alpha) of 76%.
